One block for each compound: values may come before it. Where a SMILES comes first, the peptide text is derived from it. [ ]: non-standard residue; d: D form. Phe(4-Br) = N[C@@H](Cc1ccc(Br)cc1)C(=O)O; Nle = CCCC[C@H](N)C(=O)O; Aib = CC(C)(N)C(=O)O
Legend:
NEP = NEP (Homo sapiens, UniProt P08473); test: Neprilysin degradation assay (LC-MS, quantitative); details: rhNEP, 37° C., up to 72 h, LC-MS
Method: (§1) This experiment compared the in vitro NEP stability of the Arg/Leu peptides of the embodiments to native apelin isoforms and their A2 substituted counterparts. Peptides were incubated with recombinant human NEP (rhNEP, Sino Biological) at 37° C. for up to 72 h, and the extent of degradation was analyzed via LC-MS because of the overlapping elution patterns of peptide fragments. […] (McKinnie, S. M. K., et al. ChemBioChem: 17, 1495-1498 (2016)). […] (Dion, N., et al., Biochem. J.: 311, 623-627 (1995); Bateman Jr., R. C., et al., J. Biol. Chem.: 264, 6151-6157 (1989); McMurray, J. J. et al., J. Med.: 371, 993-1004 (2014)).
(§2) Apelin peptides were dissolved in Milli-Q water (1 mM). Recombinant human neprilysin (rhNEP, Sino Biological) was reconstituted in Tris buffer (100 mM Tris, 100 mM NaCl, 10 μM ZnCl2, pH 7.5). To initiate the assay, rhNEP was diluted in Tris buffer (3.1 nM final concentration), and preincubated at 37° C. for 10 minutes prior to the addition of 5 μL of apelin peptide (1 mM) and 1.5 μL internal standard dansyl-Tyr-Val-Gly-OH (1 mM). Aliquots (10 μL) were removed at 0, 1, 4, 24, and 72 h, quenched with 0.1 M EDTA (10 μL), diluted to 100 μL with Milli-Q water and analyzed by LC-MS. Assays were performed in triplicate (n=3) for each time point. Integrated peak areas of the parent apelin peptide and internal standard derived from LC-MS analyses, were extracted using Mass Hunter software (version B.04.00) and compared in positive extracted ion count modus (+EIC, extracted-ion chromatogram). […] (apelin:dansyl-YVG), to the same ratio at the different assay time points. The decrease in apelin:dansyl-YVG ratio was converted to a percentage of cleaved peptide over time.
(§3) The extent of degradation was analyzed via LC-MS because of the overlapping elution patterns of peptide fragments (NEP).
(§4) Native apelin-17 (2) and apelin peptides 5, 54, 56, 57, 58 and 59 were dissolved in Milli-Q water (1 mM). Recombinant human neprilysin (rhNEP, Sino Biological) was reconstituted in Tris buffer (100 mM Tris, 100 mM NaCl, 10 μM ZnCl2, pH 7.5). To initiate the assay, rhNEP was diluted in Tris buffer (3.1 nM final concentration) and preincubated at 37° C. for 10 min prior to the addition of 5 μL of apelin peptide (1 mM) and 1.5 μL of internal standard dansyl-Tyr-Val-Gly-OH (1 mM). Aliquots (10 μL) were removed at 0, 1, 4, 24, and 72 h, quenched with 0.1 M EDTA (10 μL), diluted to 100 μL with Milli-Q water, and analyzed by LC-MS. Assays were performed in triplicate (n=3) for each time point. Integrated peak areas of the parent apelin peptide and internal standard derived from LC-MS analyses were extracted using Mass Hunter software (version B.04.00) and compared in positive extracted ion count modus (+EIC). The extent of proteolysis was determined by comparing the initial (0 h) ratio of the integrated extracted ions of the parent apelin peptide to the internal dansyl-YVG standard (apelin/dansyl-YVG) to the same ratio at the different assay time points. The decrease in apelin/dansyl-YVG ratio was converted to a percentage of cleaved peptide over time.

in vitro = details: human, plasma
KLKB1 = KLKB1 (Homo sapiens, UniProt P03952); test: Kinetic parameters for KLKB1 cleavage; type: biochemical; design: purchased Novoprotein; details: enzyme KLKB1
Sequence of KLKB1 (P03952 20-638): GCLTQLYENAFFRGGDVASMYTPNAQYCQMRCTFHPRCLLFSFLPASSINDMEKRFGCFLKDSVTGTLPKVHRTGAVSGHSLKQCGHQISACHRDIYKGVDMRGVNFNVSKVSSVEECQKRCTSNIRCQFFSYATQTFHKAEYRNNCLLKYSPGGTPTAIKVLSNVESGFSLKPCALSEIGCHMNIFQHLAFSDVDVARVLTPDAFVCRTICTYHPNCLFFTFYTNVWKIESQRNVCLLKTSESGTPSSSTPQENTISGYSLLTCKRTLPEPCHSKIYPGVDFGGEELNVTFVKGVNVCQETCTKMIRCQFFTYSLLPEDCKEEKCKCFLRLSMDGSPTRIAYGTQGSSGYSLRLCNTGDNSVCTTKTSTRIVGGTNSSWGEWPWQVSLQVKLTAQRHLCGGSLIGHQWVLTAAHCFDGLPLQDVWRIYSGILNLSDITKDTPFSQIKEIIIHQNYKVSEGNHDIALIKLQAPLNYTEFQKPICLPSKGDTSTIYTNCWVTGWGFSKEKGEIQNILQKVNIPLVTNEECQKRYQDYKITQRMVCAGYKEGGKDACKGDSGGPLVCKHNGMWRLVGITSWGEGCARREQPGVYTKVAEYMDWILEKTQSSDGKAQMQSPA

neprilysin (NEP) = neprilysin (NEP) (Homo sapiens, UniProt P08473); test: in vitro; details: human, pH 7.5
Sequence of neprilysin (NEP) (P08473 whole entry): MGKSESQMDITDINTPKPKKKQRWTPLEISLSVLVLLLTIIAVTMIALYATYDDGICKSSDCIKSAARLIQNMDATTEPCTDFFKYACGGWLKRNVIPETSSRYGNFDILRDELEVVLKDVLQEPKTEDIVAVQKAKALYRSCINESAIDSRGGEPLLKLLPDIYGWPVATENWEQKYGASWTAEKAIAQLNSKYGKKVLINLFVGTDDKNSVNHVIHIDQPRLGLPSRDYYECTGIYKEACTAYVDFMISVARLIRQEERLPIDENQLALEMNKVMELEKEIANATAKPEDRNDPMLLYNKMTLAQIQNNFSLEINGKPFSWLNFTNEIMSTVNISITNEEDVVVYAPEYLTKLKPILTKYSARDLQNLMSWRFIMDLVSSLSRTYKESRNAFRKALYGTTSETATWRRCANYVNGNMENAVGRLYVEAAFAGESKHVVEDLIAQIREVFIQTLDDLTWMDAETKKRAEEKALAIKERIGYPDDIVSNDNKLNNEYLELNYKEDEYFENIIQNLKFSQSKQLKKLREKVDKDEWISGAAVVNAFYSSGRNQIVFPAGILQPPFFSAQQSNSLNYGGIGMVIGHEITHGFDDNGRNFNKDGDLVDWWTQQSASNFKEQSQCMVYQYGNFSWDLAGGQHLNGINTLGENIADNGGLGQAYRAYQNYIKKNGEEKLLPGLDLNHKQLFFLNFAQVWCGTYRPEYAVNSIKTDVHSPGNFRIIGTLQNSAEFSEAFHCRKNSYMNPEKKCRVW
Method: as §1, §2, §3, §4

[1] = molecular target: Human plasma kallikrein KLKB1 (Homo sapiens, UniProt P03952); test: Plasma kallikrein KLKB1 qualitative cleavage assay (MALDI-TOF)
Sequence of Human plasma kallikrein KLKB1 (P03952 20-638): as the sequence (P03952 20-638) above
Method: Native apelin-17 (2) and apelin peptides 5, 56, 57, 58 and 59 were dissolved in Milli-Q water (1 mM). Human plasma kallikrein KLKB1 were each reconstituted in Tris buffer (100 mM TrisHCl, 10 mM CaCl2), 150 mM NaCl) and diluted with Tris buffer (50 mM TrisHCl, 250 mM NaCl) to give a KLKB1 concentration of […]. The KLKB1 enzyme was then preincubated at 37° C. for 10 minutes prior to the addition of 5 μL of apelin peptide (1 mM). Aliquots (1 μL) were taken at 1, 2, 4, 6, 12, 24, 36, and 48 hours and analyzed with MALDI-TOF mass spectrometry to qualitatively determine the time point at which degradation products could be observed (Table 4).

[2] = molecular target: T1, KLKB1 (plasma kallikrein) (Homo sapiens, UniProt P03952); test: In vitro KLKB1 stability (half-life); type: in vitro ADME; details: human
T1 construct: purchased Novoprotein
T1 sequence (P03952 20-638): as above

[3] = tested on: Angiotensin converting enzyme 2 (ACE2); test: in vitro and in vivo; details: cited from earlier work
[4] = tested on: recombinant human neprilysin (rhNEP, Sino Biological); test: rhNEP diluted in Tris buffer (100 mM Tris, 100 mM NaCl, 10 μM ZnCl2, pH 7.5), 3.1 nM final concentration; details: 37° C., up to 72 h
[5] = tested on: KLKB1 (rhKLKB1, Novoprotein); test: Human plasma kallikrein KLKB1 in Tris buffer, KLKB1 concentration of 2 ng/pL; details: 37° C., up to 48 hours

Sequence of NEP (P08473 whole entry, the tested form may be a part, canonical isoform): as the sequence (P08473 whole entry) above

Compound: CSCC[C@H](NC(=O)[C@@H]1CCCN1C(=O)CNC(=O)[C@H](CCCCN)NC(=O)[C@H](Cc1cnc[nH]1)NC(=O)[C@H](CO)NC(=O)[C@H](CC(C)C)NC(=O)[C@H](CCCNC(=N)N)NC(=O)[C@@H]1CCCN1C(=O)[C@H](CCCNC(=N)N)NC(=O)[C@@H]1CCC(=O)N1)C(=O)N1CCC[C@H]1C(=O)N[C@@H](Cc1ccccc1)C(=O)O [Peptide 1, reference compound]
in vitro NEP proteolytic stability (in words) (NEP): degraded by NEP at rates comparable to those previously reported

Compound: (Pyr)RPRLSHKGPMPF
cleaved bond [3]: Pro-Phe
not cleaved [4]: C-terminal dipeptide excision was not observed

Compound: LVQPRGSRNGPGPWQGGRRKFRR-QRPRLSHKGPMPF
cleaved bond [3]: Pro-Phe

Second part, led by results:

remaining at 0.5 h, 80 µM (in vitro): 43 ± 1%
remaining at 1 h, 80 µM (in vitro): 35 ± 5%
Km (KLKB1): 30 ± 4 µM
kcat (KLKB1): 1.4 ± 0.2 s⁻¹
half-life (neprilysin (NEP)): 60 min
Degradation Onset Timepoint with KLKB1 [1]: <30 min
half-life [2]: 42 min
Compound: CCCC[C@H](NC(=O)[C@@H]1CCCN1C(=O)CNC(=O)[C@H](CCCCN)NC(=O)[C@H](Cc1c[nH]cn1)NC(=O)[C@H](CO)NC(=O)[C@H](CC(C)C)NC(=O)[C@H](CCCNC(=N)N)NC(=O)[C@@H]1CCCN1C(=O)[C@H](CCCNC(=N)N)NC(=O)[C@H](CCC(N)=O)NC(=O)[C@H](CCCNC(=N)N)NC(=O)[C@H](CCCNC(=N)N)NC(=O)[C@H](Cc1ccccc1)NC(=O)[C@@H](N)CCCCN)C(=O)NC(C)(C)C(=O)N[C@@H](Cc1ccc(Br)cc1)C(=O)O [Peptide 5] (H-KFRRQRPRLSHKGP[Nle][Aib][Phe(4-Br)]-OH; C-terminus assumed)

cleaved bond [5]: Arg3-Arg4, <30 min
Compound: KFRRQRPRLSHKGPMPF
cleaved bond [3]: Pro-Phe
not cleaved [4]: C-terminal dipeptide excision was not observed

cleaved bond [5]: Arg3-Arg4
cleaved bond [4]: Nle15-Aib16, minor
Compound: Lys-Phe-Arg-Arg-Gln-Arg-Pro-Arg-NMeLeu-Ser-His-Lys-Gly-Pro-Nle-Aib-paraBrPhe

Reference: patent US10640545B2 (THE GOVERNORS OF THE UNIVERSITY OF ALBERTA, priority 2017, dated 2020)
